Data as given in US11661413B2, “Pyrazole compounds or salts thereof, preparation method therefor, herbicidal composition and use thereof” (priority 2015, dated 2023).

How the values were obtained:
Barnyard grass = assay: weed control effect in post emergence stage, greenhouse pot spray; type: in vivo; conditions: sprayed at 2-3 leaf stage, after 3 weeks
Description: (§1) The activity level standard of harmful plant damage (i.e. growth inhibition rate) is as follows: The above described growth control rate is fresh weight control rate. Monocotyledonous and dicotyledonous weed seeds and main crop seeds (i.e. wheat, corn, rice, soybean, cotton, oilseed, millet and Sorghum) were put into a plastic pot loaded with soil. Then covered with 0.5-2 cm soil, the seeds were allowed to grow in good greenhouse environment. The test plants were treated at 2-3 leaf stage 2-3 weeks after sowing. […] The solution was sprayed to the plants with a sprayer. Then the plants were cultured for 3 weeks in the greenhouse.

Flixweed = assay: as above; type: in vivo; conditions: 16 g/mu, sprayed at 2-3 leaf stage, after 3 weeks
Description: as §1

SMILES	weed control effect (activity level), Barnyard grass (Barnyard grass; 1 g/mu)	weed control effect (activity level), Barnyard grass (Barnyard grass; 2 g/mu)	weed control effect (activity level), Barnyard grass (Barnyard grass; 4 g/mu)	weed control effect (activity level), Barnyard grass (Barnyard grass; 8 g/mu)	weed control effect (activity level), Barnyard grass (Barnyard grass; 16 g/mu)	weed control effect (activity level), Flixweed (Flixweed)
Cc1cnn(Cc2c(S(C)(=O)=O)ccc(C(=O)c3cnn(C)c3O)c2Cl)c1 [Compound 7]	2 (above 20% growth inhibition rate)	3 (above 30% growth inhibition rate)	3 (above 30% growth inhibition rate)	6 (above 60% growth inhibition rate)	6 (above 60% growth inhibition rate)	10
Cc1ccn(Cc2c(S(C)(=O)=O)ccc(C(=O)c3cnn(C)c3O)c2Cl)n1 [Compound 8]	2 (above 20% growth inhibition rate)	2 (above 20% growth inhibition rate)	4 (above 30% growth inhibition rate)	7 (above 70% growth inhibition rate)	8 (above 80% growth inhibition rate)	10
Cc1cc(C)n(Cc2c(S(C)(=O)=O)ccc(C(=O)c3cnn(C)c3O)c2Cl)n1 [Compound 9]	2 (above 20% growth inhibition rate)	2 (above 20% growth inhibition rate)	3 (above 30% growth inhibition rate)	5 (above 50% growth inhibition rate)	5 (above 50% growth inhibition rate)	10
Cn1ncc(C(=O)c2ccc(S(C)(=O)=O)c(Cn3cc(Cl)cn3)c2Cl)c1O [Compound 10]	2 (above 20% growth inhibition rate)	4 (above 30% growth inhibition rate)	4 (above 30% growth inhibition rate)	7 (above 70% growth inhibition rate)	8 (above 80% growth inhibition rate)	10
Cn1nc(C2CC2)c(C(=O)c2ccc(S(C)(=O)=O)c(Cn3cc(Cl)cn3)c2Cl)c1O [Compound 11]	2 (above 20% growth inhibition rate)	4 (above 30% growth inhibition rate)	4 (above 30% growth inhibition rate)	6 (above 60% growth inhibition rate)	7 (above 70% growth inhibition rate)	10
Cc1cnn(Cc2c(S(C)(=O)=O)ccc(C(=O)c3c(C4CC4)nn(C)c3O)c2Cl)c1 [Compound 12]	2 (above 20% growth inhibition rate)	4 (above 30% growth inhibition rate)	6 (above 60% growth inhibition rate)	7 (above 70% growth inhibition rate)	8 (above 80% growth inhibition rate)	10
CCn1nc(C)c(C(=O)c2ccc(S(C)(=O)=O)c(Cn3cc(C)cn3)c2Cl)c1O [Compound 16]	2 (above 20% growth inhibition rate)	3 (above 30% growth inhibition rate)	4 (above 30% growth inhibition rate)	4 (above 30% growth inhibition rate)	6 (above 60% growth inhibition rate)	10
CCn1nc(C)c(C(=O)c2ccc(S(C)(=O)=O)c(Cn3nc(C)cc3C)c2Cl)c1O [Compound 17]	2 (above 20% growth inhibition rate)	2 (above 20% growth inhibition rate)	2 (above 20% growth inhibition rate)	4 (above 30% growth inhibition rate)	5 (above 50% growth inhibition rate)	10
CCn1ncc(C(=O)c2ccc(S(C)(=O)=O)c(Cn3cc(C)cn3)c2Cl)c1O [Compound 19]	2 (above 20% growth inhibition rate)	3 (above 30% growth inhibition rate)	3 (above 30% growth inhibition rate)	4 (above 30% growth inhibition rate)	4 (above 30% growth inhibition rate)	10
CCn1ncc(C(=O)c2ccc(S(C)(=O)=O)c(Cn3nc(C)cc3C)c2Cl)c1O [Compound 20]	3 (above 30% growth inhibition rate)	4 (above 30% growth inhibition rate)	6 (above 60% growth inhibition rate)	6 (above 60% growth inhibition rate)	8 (above 80% growth inhibition rate)	10
CCn1nc(C2CC2)c(C(=O)c2ccc(S(C)(=O)=O)c(Cn3cc(C)cn3)c2Cl)c1O [Compound 22]	2 (above 20% growth inhibition rate)	4 (above 30% growth inhibition rate)	6 (above 60% growth inhibition rate)	6 (above 60% growth inhibition rate)	10	10
CCn1nc(C2CC2)c(C(=O)c2ccc(S(C)(=O)=O)c(Cn3nc(C)cc3C)c2Cl)c1O [Compound 23]	2 (above 20% growth inhibition rate)	3 (above 30% growth inhibition rate)	5 (above 50% growth inhibition rate)	7 (above 70% growth inhibition rate)	8 (above 80% growth inhibition rate)	10
CCc1nn(CC)c(O)c1C(=O)c1ccc(S(C)(=O)=O)c(Cn2cc(C)cn2)c1Cl [Compound 25]	2 (above 20% growth inhibition rate)	3 (above 30% growth inhibition rate)	4 (above 30% growth inhibition rate)	4 (above 30% growth inhibition rate)	5 (above 50% growth inhibition rate)	10
CCc1nn(CC)c(O)c1C(=O)c1ccc(S(C)(=O)=O)c(Cn2nc(C)cc2C)c1Cl [Compound 26]	2 (above 20% growth inhibition rate)	2 (above 20% growth inhibition rate)	4 (above 30% growth inhibition rate)	3 (above 30% growth inhibition rate)	5 (above 50% growth inhibition rate)	10
CCc1nn(C(C)C)c(O)c1C(=O)c1ccc(S(C)(=O)=O)c(Cn2nc(C)cc2C)c1Cl [Compound 29]	2 (above 20% growth inhibition rate)	3 (above 30% growth inhibition rate)	5 (above 50% growth inhibition rate)	7 (above 70% growth inhibition rate)	8 (above 80% growth inhibition rate)	10
Cc1nn(C(C)C)c(O)c1C(=O)c1ccc(S(C)(=O)=O)c(Cn2cc(Cl)cn2)c1Cl [Compound 30]	2 (above 20% growth inhibition rate)	3 (above 30% growth inhibition rate)	5 (above 50% growth inhibition rate)	7 (above 70% growth inhibition rate)	7 (above 70% growth inhibition rate)	10
CCS(=O)(=O)Oc1c(C(=O)c2ccc(S(C)(=O)=O)c(Cn3cc(C)cn3)c2Cl)c(C)nn1C [Compound 32]	5 (above 50% growth inhibition rate)	6 (above 60% growth inhibition rate)	5 (above 50% growth inhibition rate)	7 (above 70% growth inhibition rate)	8 (above 80% growth inhibition rate)	10
CCOC(=O)Oc1c(C(=O)c2ccc(S(C)(=O)=O)c(Cn3nc(C)cc3C)c2Cl)c(C)nn1C [Compound 36]	2 (above 20% growth inhibition rate)	3 (above 30% growth inhibition rate)	4 (above 30% growth inhibition rate)	4 (above 30% growth inhibition rate)	5 (above 50% growth inhibition rate)	10
